Entries after “also recorded” stand apart in the source; their conditions may differ. Positions of bridges follow the written chain, without caps; N, C: chain ends. Residues, ends and D or L forms follow the SMILES beside them.

The subject of one series is hERG channel. The note with it: cited from earlier work. The text has this: The Kv11.1 channel (hERG) and the corresponding IKr current play a major role in cardiac repolarization (Figure S1). […] Long QT syndrome is one of the cardiac diseases that has been studied in the greatest detail. Type II long QT syndrome is associated with a decrease in IKr currents, as opposed to short QT syndrome, which is associated with increased IKr currents. Type II long QT syndrome is called “inherited” when a mutation in the gene encoding hERG, KCNH2, gives rise to a loss of ... || In this report, we focused on BeKm-1, a toxin that was originally isolated from the venom of Buthus eupeus scorpion. […] According to its 3D structure, the peptide adopts an α-helix and three β-strands organized in a twisted antiparallel β-sheet. By homology with other toxins, BeKm-1 is a member of the γ-KTx subfamily of scorpion toxins.

The test system of series [1] is hiPS-CMs (clone C2a, ventricular-like). Kind of series: Manual patch-clamp of spontaneous action potentials in hiPS-CMs. Format: cell-based, human. The text has this: For this study, we used a non-commercial hiPS cell clone (C2a) that has been fully characterized earlier in the laboratory. The properties of the cardiomyocytes derived from this clone may differ to some extent from those of commercial clones, but this should not affect the nature of the conclusions derived from our investigations. […] The effects on AP characteristics also included the depolarization of the maximum diastolic potential (MDP) from −52.2 ± 1.7 mV to −36.1 ± 2.3 mV (n = 7, Figure 2D) and the decrease of maximal upstroke velocity from 6.9 ± 0.9 mV/s (vehicle, n = 7) to 4.6 ± 0.9 mV/s (BeKm-1, n = 7), representing an average 1.5-fold reduction (Figure 2E). […] The action potential duration (APD) at 30% and 50% of repolarization were spared, which is consistent with the role of hERG in the late phase of repolarization in these cells (Figure 2G). In contrast, BeKm-1 was able to delay the repolarization of these cells, increasing the APD at 90% repolarization (APD90) from 95.0 ± 8.4 ms (vehicle, n = 7) to 117.4 ± 11.3 ms (BeKm-1, n = 7; 23% increase) (Figure 2G). While these values could theoretically be corrected for the BeKm-1-induced variability in cycle length (Figure 2C) using the Fridericia cube root formula, the corrected data would be meaningless because of the additional depolarization in MDP (Figure 2D).
hiPS-CMs: All experiments were performed on the human-induced pluripotent stem cell (hiPSC) clone C2a that has been previously characterized, including cardiac differentiation and electrophysiology data. Cells were expanded on stem cell-qualified matrigel-coated plates (0.05 mg/mL; BD Bioscience, Le Pont de Claix, France) and cultured in StemMACS iPS-BREW XF medium (Miltenyi Biotec, Paris, France). Cells were passaged every […] using Gentle Cell Dissociation Buffer (StemCell Technologies, Grenoble, France). Prior to differentiation, cells were cultured as a monolayer in StemMACS iPS-brew supplemented with 1 × Y-27632 Rho-associated, coiled-coil containing protein kinase (ROCK) inhibitor (StemCell Technologies, Grenoble, France). When hiPSCs reached proper confluence, they were differentiated into cardiomyocytes using previously described « Matrix sandwich » protocol. At day 20 ± 1 of differentiation, beating cardiomyocytes were manually dissected and isolated from non-beating cells. Briefly, cardiomyocytes were washed with phosphate-buffered saline (PBS) and treated with TrypLE Express (10x) (Thermo Fisher Scientific, Illkirch-Graffenstaden, France) for 5 min at 37 °C. The enzyme was inactivated by adding RPMI1640 medium containing 20% (vol/vol) KnockOut Serum Replacement (KSR) (Thermo Fisher Scientific, Illkirch-Graffenstaden, France). The supernatant was removed, and cells were suspended in RPMI1640 medium containing 20% (vol/vol) KSR and ROCK inhibitor. Then, the cells were plated on specific supports suitable for functional assessments.
Manual patch clamp: Single-cell dissociated hiPS-CMs were plated at low density on matrigel-coated 35 mm Petri dishes (Nunc from Thermo Fisher Scientific, Illkirch-Graffenstaden, France). Electrophysiological experiments were performed 12 to 14 days after dissociation. APs were recorded in the current-clamp mode, using the amphotericin-B-perforated patch-clamp technique. All experiments were conducted at 37 °C. APs were recorded either at basal state (spontaneous APs) or using the dynamic patch-clamp method to electronically mimic the expression of the inward rectifier potassium current, IK1 [23, 24]. The resting membrane potential (RMP) was set to −80 ± 5 mV by injecting 2 to 2.8 pA/pF in silico IK1 density. This level of current was set so that about 80% of the ventricular-like hiPS-CMs could reach these physiological RMP values. The remaining cells were discarded from the recording process. […]
Background: Patch clamp records ionic current or voltage across a cell membrane.

For `CC[C@H](C)[C@H](NC(=O)[C@H](CC(=O)O)NC(=O)[C@@H](NC(=O)[C@@H]1CCCN1C(=O)[C@@H](N)CCCNC(=N)N)[C@@H](C)O)C(=O)N[C@@H](CCCCN)C(=O)N[C@H]1CSSC[C@@H]2NC(=O)[C@H](CCCNC(=N)N)NC(=O)CNC(=O)[C@H](CC(N)=O)NC(=O)[C@H]([C@@H](C)O)NC(=O)[C@H](CCCCN)NC(=O)CNC(=O)[C@H](Cc3ccccc3)NC(=O)[C@H](CCCNC(=N)N)NC(=O)[C@H](CO)NC(=O)[C@H](CCCCN)NC(=O)[C@@H]3CSSC[C@@H](C(=O)N[C@@H](Cc4ccccc4)C(=O)O)NC(=O)[C@H](CC(=O)O)NC(=O)[C@H](CSSC[C@H](NC(=O)[C@H](CCC(N)=O)NC(=O)[C@H](Cc4ccc(O)cc4)NC(=O)[C@H](CO)NC(=O)[C@H](CCC(=O)O)NC(=O)[C@H](CO)NC1=O)C(=O)N[C@@H](Cc1ccccc1)C(=O)N1CCC[C@H]1C(=O)N[C@@H](C(C)C)C(=O)N3)NC(=O)[C@H](Cc1ccccc1)NC(=O)CNC(=O)[C@H](CC(N)=O)NC(=O)[C@H](C(C)C)NC2=O` [BeKm-1] (H-RPTDIKCSESYQCFPVCKSRFGKTNGRCVNGFCDCF-OH; disulfide 7-28, 13-33, 17-35 (inferred); N-terminus and C-terminus assumed), the “selectivity for hERG” value in the series with hERG channel (in cardiomyocytes, no ref at the statement) was “highly selective for the hERG channel in cardiomyocytes”. Also, the half-inhibitory concentration (IC50) in the series on hERG channel (read-out: IC50, hERG (reported), ref [1],[2],[3],[4]) is 3.3 to 15.3 nM. In addition, the other targets result in the series on hERG channel (ref [1]) was “no other targets have been reported”. Also, the channel state blocked result in the series on hERG channel (ref [4]) is listed as “blocks the closed state of the channel”. Moreover, in the series with hERG channel (ref [9]), the “binding site (face of channel)” value was “preferentially binds the hERG outer mouth”. Moreover, the AP frequency in series [1] (5 nM BeKm-1, 37 °C, vehicle 2.50 ± 0.20 Hz, n = 7, mean ± SEM, significant) worked out at 0.70 ± 0.26 Hz. Also, in series [1] (5 nM application, Figure S2), the “kinetics of AP parameter changes” value is given as “changed according to similar kinetics”. The “maximal upstroke velocity, fold reduction” value in series [1] (5 nM vs vehicle, average) was 1.5 -fold. The APD90 increase in series [1] (5 nM vs vehicle, spontaneous APs) amounted to 23%. In addition, in series [1] (5 nM, representative time course, Figure S2), the “restitution of AP parameters after toxin washout” value was “rather rapid restitution of these parameters after toxin washout”. Also, the “APD at 30% and 50% of repolarization” value in series [1] (5 nM, spontaneous APs) was “spared”. Moreover, in series [1] (5 nM, spontaneous APs, vehicle 95.0 ± 8.4 ms, n = 7, mean ± SEM, not corrected for cycle length), the “APD at 90% repolarization (APD90)” value is 117.4 ± 11.3 ms. In series [1] (5 nM, Poincaré plot), the APD90 variability entry is on record as “increased”. Further, in series [1] (5 nM, Poincaré plot of consecutive APs), the AP rhythm variability result was “increase of rhythm variability”. Further, the “maximal upstroke velocity (dV/dtmax)” value in series [1] (5 nM, vehicle 6.9 ± 0.9 mV/s, n = 7, mean ± SEM) came out at 4.6 ± 0.9 mV/s. The same compound gave an AP overshoot in series [1] (5 nM, vehicle 29.9 ± 3.1 mV, n = 7, mean ± SEM, not significant) of 22.2 ± 6.4 mV. Besides, in series [1] (5 nM, vehicle −52.2 ± 1.7 mV, n = 7, mean ± SEM), the “maximum diastolic potential (MDP)” value was −36.1 ± 2.3 mV. The “beating / AP arrest” value in series [1] (100 nM, representative trace of single hiPS-CM) is “AP arrest; also recorded: complete beating arrest by a major membrane depolarization”. The “early afterdepolarizations (EADs)” value in series [1] (spontaneously beating ventricular-like cells) was “never observed”. In addition, in series [1] (wash after 5 nM, n = 5), the reversibility on wash entry is “fully restored all parameters”.

Broadly, the IC50 is the concentration that gives 50% inhibition.

Values taken from publication PMC7582727, “Functional Impact of BeKm-1, a High-Affinity hERG Blocker, on Cardiomyocytes Derived from Human-Induced Pluripotent Stem Cells” (International Journal of Molecular Sciences, 2020).
